14 compounds from patent US7507739B2, “6-[(substituted)phenyl]triazolopyrimidines as anticancer agents” (Wyeth, priority 2003, dated 2009) can be followed below.

The term IC50 denotes the point on the concentration scale where inhibition reaches its midpoint. High values mean weaker potency in that assay, low ones greater potency in that assay.

Assay [1] concerns MAP-rich tubulin. Kind of assay: Tubulin polymerization test with MAP-rich tubulin. The format is biochemical, bovine. The following applies: 0.3 μM compound, 20 min, fold enhancement over control. The procedure:
Medium is RPMI-1640 with L-glutamine, supplemented with 10% heat-inactivated fetal calf serum, 100 units/ml penicillin, and 100 μg/ml streptomycin (Gibco, Grand Island, N.Y.). Microtubule-associated protein (MAP)-rich tubulin, containing about 70% tubulin and 30% MAPs (#ML113), and highly purified tubulin (>99% pure, #TL238), both from bovine brain, are obtained from Cytoskeleton, Inc., Denver, Colo. PEM buffer (80 mM piperazine-N,N′-bis[2-ethanesulfonic acid], pH 6.9, 1 mM ethylene glycol-bis(β-aminoethyl ether)-N,N,N′,N′-tetraacetic acid, 1 mM magnesium chloride) and guanosine 5′-triphosphate (GTP) are also obtained from Cytoskeleton. [3H]paclitaxel, specific activity 14.7 Ci/mmol, is purchased from Moravek Biochemicals (Brea, Calif.). [^3H]vinblastine, specific activity 9.60 Ci/mmol and MicroSpin G-50 columns are obtained from Amersham Biosciences (Piscataway, N.J.). […] Other reagents are obtained from Sigma (St. Louis, Mo.).
Two variations of this procedure are done, one using MAP-rich tubulin and one using pure tubulin.
MAP-rich tubulin is dissolved in ice-cold PEM buffer containing 1 mM GTP (GPEM buffer) at a concentration of 1.3 mg/mL. The solution is centrifuged at top speed in an Eppendorf model 5415C microcentrifuge (Brinkmann Instruments, Westbury, N.Y.) for 10 min at […] immediately before use. The tubulin solution is added to wells of a ½-area 96-well plate (Costar No. 3696, Corning, Inc., Corning, N.Y.) already containing the compounds of interest. Each compound is tested in duplicate at a final concentration of 0.3 μM in a volume of 110 μL per well. The final DMSO concentration in all wells is 0.3%. Control reactions, which received compound solvent only, are done in quadruplicate. The plate is put in a SpectraMax Plus plate reader (Molecular Devices Corp. Sunnyvale, Calif.) thermostated at 24° and the absorbance of each well at 340 nm, a measure of the appearance of turbidity due to tubulin polymer formation, is determined every minute for 60 minutes. The absorbance at time 0 for each well is subtracted from each of the subsequent absorbance readings for that well, and then the duplicates are averaged.
In this assay, control reactions with MAP-rich tubulin show an S-shaped absorbance profile characterized by three phases: first, a lag phase during which no change in absorbance occurs; second, a polymerization phase in which absorbance increases; and third, a plateau phase in which absorbance has reached a maximum and little or no further change occurs. Polymerization enhancers such as paclitaxel and docetaxel shorten or eliminate the lag phase, increase the rate of the polymerization phase, and often increase the height of the plateau. […] The compounds of this invention have a taxane-like effect on the polymerization reaction. This has been expressed quantitatively in Table 5 by dividing the mean A340 of each sample at 20 min by the mean A340 of the control at 20 min to give a fold enhancement over control. […] Examples of this invention have factors ranging up to 8.1, with the majority in the 5 to 6-fold range.

Assay [2] concerns COLO 205 cells. The assay is described as follows: MTS cytotoxicity test with COLO 205 cells. The class given is cell-based, human. The following applies: 3 days. The procedure: The assay, which is sold in kit form by Promega (Madison, Wis.; CellTiter 96 AQueous Non-Radioactive Cell Proliferation Assay), is based on the conversion by viable cells, but not by dead cells, of the tetrazolium salt, MTS (3-(4,5-dimethylthiazol-2-yl)-5-(3-carboxymethoxyphenyl)-2-(4-sulphophenyl)-2H-tetrazolium, inner salt), into a water-soluble colored formazan which is detected by spectrophotometry. Compounds are tested at nine concentrations, in order to determine IC50 values. For the test procedure, cells are harvested by trypsinization (or, in the case of non-adherent cells, by simple resuspension), washed, counted and distributed to wells of 96-well flat-bottom microtiter plates at 1000 cells per well in 200 μL of medium. In addition, one row of wells on a separate plate received cells as above (“time 0” plate). All plates are incubated at 37° in humidified 5% CO2 in air for about 24 hr.
On day 2, compounds for test are diluted and added to wells. Compounds are dissolved in DMSO at 10 mg/mL. For each compound, nine serial 2-fold dilutions are prepared in DMSO. Ten μL of each dilution in DMSO is transferred to 100 μL of medium, mixed well, and then 5 μL of this dilution is transferred in quadruplicate to wells containing cells. The final high concentration of each compound is typically 5 μM. Plates are returned to the incubator for three days. At the time of drug addition to the experimental plates, the MTS assay is run on the “time 0” plate. This produced the “time 0 MTS value” which is related to the number of viable cells per well at the time of drug addition.
After three days of culture with test compounds (day 5 overall), the MTS assay is done on all wells of the experimental plates. The absorbance values of the quadruplicate sample wells are averaged and divided by the average of the “time 0” values. The average of control wells without drug, divided by the average “time 0” value, gave the maximal relative increase in MTS color yield due to cell growth during the final three days of culture. The average of control wells with high drug concentration, divided by the “time 0” value, gave the minimal relative color yield for cells that are completely killed. The nine values for each compound are plotted against concentration, and the concentration that produced a relative color yield half way between the maximum and minimum is taken as the IC50 value.
COLO 205 is a human colon carcinoma cell line that is used for comparative testing of the examples of this invention and several reference compounds. This line is sensitive to paclitaxel and vincristine.
For orientation: Tetrazolium dyes change colour on reduction, which living cells bring about.

Assay [3] has as its system A549 Human Non-Small Cell Lung Carcinoma. The assay is described as follows: Human tumor xenograft test, A549. The class given is in vivo, athymic mice. Particulars: A549, intravenously q4dX8 at 40 mg/kg. The procedure: (§1) The ability of compounds of this invention to inhibit tumor growth in animals is studied in the athymic mouse xenograft standard pharmacological test. Female nu/nu mice in an outbred albino background are obtained from Charles River Laboratories (Wilmington, Mass.). Animals are injected subcutaneously on the flank with the desired tumor cell suspension. Several days later, mice with tumors of approximately 150 mm^3 are selected from those injected (staged) and randomly distributed into groups of 5-10. The day of staging is called day 0. Compounds of the invention, usually formulated in saline (exceptions are noted in tables), are administered to animals by intravenous injection or oral gavage on various schedules starting on day 0 or 1, as noted in the tables. The control group in each experiment is dosed with vehicle on the same schedule. Tumor size is measured every 3-7 days with calipers in two orthogonal dimensions, and tumor volume is calculated from the formula volume=[(length×width^2)/2].
(§2) Tumor/Control (T/C) is obtained by dividing the mean tumor volume of the treated group by the mean tumor volume of the control group on each measurement day. A treatment dose is defined as active if it produced a statistically significant T/C of 0.50 or less. A p value≦0.05, determined by one-side Student's t-test, is required for statistical significance. A treatment dose is defined as toxic if more than 10% of the animals died from a compound-related toxicity.

The test system of assay [4] is DLD1 Human Colon Carcinoma. Kind of assay: Human tumor xenograft test, DLD1. The class given is in vivo. Particulars: DLD1, 15 mg/kg intravenously on days 1, 5, 9, and 13. The procedure: as §1, §2

Regarding `CNCCCOc1cc(F)c(-c2c(Cl)nc3ncnn3c2NCC(F)(F)F)c(F)c1` [Example 3, 5-Chloro-6-{2,6-difluoro-4-[3-(methylamino)propoxy]phenyl}-N-(2,2,2-trifluoroethyl)[1,2,4]triazolo[1,5-a]pyrimidin-7-amine], the “A340 Compound/A340 Control” value in assay [1] turned out to be 6.7. In addition, it took 25 nM to reach half-maximal inhibition in assay [2] (Homo sapiens, COLO 205, 72 h) (IC50). Taken in the same sequence, the figures for `CCN(C)CCCOc1cc(F)c(-c2c(Cl)nc3ncnn3c2N[C@@H](C)C(F)(F)F)c(F)c1` [Example 8, 5-Chloro-6-(4-{3-[ethyl(methyl)amino]propoxy}-2,6-difluorophenyl)-N-[(1S)-2,2,2-trifluoro-1-methylethyl][1,2,4]triazolo[1,5-a]pyrimidin-7-amine] were 6.2 and 48 nM.

As to `C[C@H](Nc1c(-c2ccc(OCCCN(C)C)cc2F)c(Cl)nc2ncnn12)C(F)(F)F` [Example 13, 5-Chloro-6-{4-[3-(dimethylamino)propoxy]-2-fluorophenyl}-N-[(1S)-2,2,2-trifluoro-1-methylethyl][1,2,4]triazolo[1,5-a]pyrimidin-7-amine], the “A340 Compound/A340 Control” value in assay [1] worked out at 5.4. Moreover, in assay [2] (Homo sapiens, COLO 205, 72 h), the IC50 was determined as 262 nM.

As for `C[C@H](Nc1c(-c2c(F)cc(OCCCN3CCC3)cc2F)c(Cl)nc2ncnn12)C(F)(F)F` [Example 12, 6-[4-(3-Azetidin-1-ylpropoxy)-2,6-difluorophenyl]-5-chloro-N-[(1S)-2,2,2-trifluoro-1-methylethyl][1,2,4]triazolo[1,5-a]pyrimidin-7-amine], the “A340 Compound/A340 Control” value in assay [1] worked out at 2.9. This compound also returned an IC50 in assay [2] (Homo sapiens, COLO 205, 72 h) of 326 nM. Regarding `C[C@H](Nc1c(-c2c(F)cc(NCCN(C)C)cc2F)c(Cl)nc2ncnn12)C(F)(F)F` [Example 24, N^1-[4-(5-Chloro-7-{[(1S)-2,2,2-trifluoro-1-methylethyl]amino}[1,2,4]triazolo[1,5-a]pyrimidin-6-yl)-3,5-difluorophenyl]-N^2,N^2-dimethylethane-1,2-diamine], the “A340 Compound/A340 Control” value in assay [1] turned out to be 1.2. In assay [2] (Homo sapiens, COLO 205, 72 h), the IC50 was determined as 1730 nM. For the compound `CN(C)CCCOc1cc(F)c(-c2c(Cl)nc3ncnn3c2C2CCCCCC2)c(F)c1` [Example 31, 3-[4-(5-Chloro-7-cycloheptyl[1,2,4]triazolo[1,5-a]pyrimidin-6-yl)-3,5-difluorophenoxy]-N,N-dimethylpropan-1-amine], the IC50 in assay [2] (Homo sapiens, COLO 205, 72 h) is 19 nM. For `CN(C)CCCOc1cc(F)c(-c2c(Cl)nc3ncnn3c2NCC(F)(F)F)c(F)c1` [Example 4, 5-Chloro-6-{4-[3-(dimethylamino)propoxy]-2,6-difluorophenyl}-N-(2,2,2-trifluoroethyl)[1,2,4]triazolo[1,5-a]pyrimidin-7-amine], the “tumor growth inhibition (activity call)” value in assay [3] is listed as “inhibited the growth”. On to `C[C@H](Nc1c(-c2c(F)cc(OCCCN3CCOCC3)cc2F)c(Cl)nc2ncnn12)C(F)(F)F` [Example 11, 5-Chloro-6-[2,6-difluoro-4-(3-morpholin-4-ylpropoxy)phenyl]-N-[(1S)-2,2,2-trifluoro-1-methylethyl][1,2,4]triazolo[1,5-a]pyrimidin-7-amine], for which the midpoint of inhibition in assay [2] (Homo sapiens, COLO 205, 72 h), the IC50, lay at 89 nM.

In assay [2] (Homo sapiens, COLO 205, 72 h), `C[C@H](Nc1c(-c2c(F)ccc(OCCCCN(C)C)c2F)c(Cl)nc2ncnn12)C(F)(F)F` [Example 29, 5-Chloro-6-{3-[4-(dimethylamino)butoxy]-2,6-difluorophenyl}-N-[(1S)-2,2,2-trifluoro-1-methylethyl][1,2,4]triazolo[1,5-a]pyrimidin-7-amine] returned an IC50 of 433 nM.

On to `C[C@H](Nc1c(-c2c(F)cc(OCCCN(C)C)cc2F)c(Cl)nc2ncnn12)C(F)(F)F` [Example 1, 5-Chloro-6-{4-[3-(dimethylamino)propoxy]-2,6-difluorophenyl}-N-[(1S)-2,2,2-trifluoro-1-methylethyl][1,2,4]triazolo[1,5-a]pyrimidin-7-amine], for which the “tumor growth inhibition (activity call)” value in assay [4] is “active”. Further, the IC50 in assay [2] is 41 nM. For the compound `CNCCCOc1cc(F)c(-c2c(Cl)nc3ncnn3c2N[C@H](C)C(F)(F)F)c(F)c1` [Example 33, 5-Chloro-6-{2,6-difluoro-4-[3-(methylamino)propoxy]phenyl}-N-[(1R)-2,2,2-trifluoro-1-methylethyl][1,2,4]triazolo[1,5-a]pyrimidin-7-amine], 126 nM corresponded to half-maximal inhibition in assay [2] (Homo sapiens, COLO 205, 72 h) (IC50). As to `C[C@H](Nc1c(-c2c(F)cc(OCCCCO)cc2F)c(Cl)nc2ncnn12)C(F)(F)F` [Example 21, 4-[4-(5-Chloro-7-{[(1S)-2,2,2-trifluoro-1-methylethyl]amino}[1,2,4]triazolo[1,5-a]pyrimidin-6-yl)-3,5-difluorophenoxy]butan-1-ol], the IC50 in assay [2] (Homo sapiens, COLO 205, 72 h) was found to be 151 nM. The same measure, in the same setting: for `C[C@H](Nc1c(-c2c(F)ccc(OCCCN(C)C)c2F)c(Cl)nc2ncnn12)C(F)(F)F` [Example 28, 5-Chloro-6-{3-[3-(dimethylamino)propoxy]-2,6-difluorophenyl}-N-[(1S)-2,2,2-trifluoro-1-methylethyl][1,2,4]triazolo[1,5-a]pyrimidin-7-amine] the value was 785 nM; for `C[C@H](Nc1c(-c2c(F)ccc(OCCN(C)C)c2F)c(Cl)nc2ncnn12)C(F)(F)F` [Example 27, 5-Chloro-6-{3-[2-(dimethylamino)ethoxy]-2,6-difluorophenyl}-N-[(1S)-2,2,2-trifluoro-1-methylethyl][1,2,4]triazolo[1,5-a]pyrimidin-7-amine], 1570 nM.
